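1) Cells in 96-well plates. 2) Compound, 48 h, 5 concentrations. 3) Linear interpolation between surrounding doses. 4) Unreached endpoint = highest concentration. TGI is the concentration that stops growth completely.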
Columns and labels:
Assay in all cases: growth of human tumour cells (NCI), 48 h
LXFL 529 NSCLC = system: LXFL 529 NSCLC
XF 498 CNS = system: XF 498 CNS
DMS 114 small cell lung = system: DMS 114 small cell lung
M19-MEL melanoma = system: M19-MEL melanoma
DMS 273 small cell lung = system: DMS 273 small cell lung
SNB-78 CNS = system: SNB-78 CNS
RXF-631 renal = system: RXF-631 renal

Row | SMILES | TGI (LXFL 529 NSCLC) [µM] | TGI (XF 498 CNS) [µM] | TGI (DMS 114 small cell lung) [µM] | TGI (M19-MEL melanoma) [µM] | TGI (DMS 273 small cell lung) [µM] | TGI (SNB-78 CNS) [µM] | TGI (RXF-631 renal) [µM]
1 | OC1CCSc2ccccc21 (stereo unspecified) | > 100 | > 100 | > 100 | > 100 | > 100 | – | –
2 | C=C(CN(C)C)C(=O)c1ccccc1Cl | 26 | – | 29.4 | 33.4 | 36.8 | 83.1 | 37.8

Reference: PubChem BioAssay (NCI)
